B1: TFPI2 recombinant protein (tissue factor pathway inhibitor 2; BioVision, #7481-10) (ligand, UniProt P48307 23-235, looked up)
chain: DAAQEPTGNNAEICLLPLDYGPCRALLLRYYYDRYTQSCRQFLYGGCEGNANNFYTWEACDDACWRIEKVPKVCRLQVSVDDQCEGSTEKYFFNLSSMTCEKFFSGGCHRNRIENRFPDEATCMGFCAPKKIPSFCYSPKDEGLCSANVTRYYFNPRYRTCDAFTYTGCGGNDNNFVSREDCKRACAKALKKKKKMPKLRFASRIRKIRKKQF
notes: Bought recombinant protein added to microglia at 20 ng/ml; also called recombinant TFPI2; secreted TFPI2

Legend:
[1] = tested on: mouse primary CD8+ T cells cocultured with SIM-A9 microglia; test: Mouse microglia and CD8+ T cell co-culture, flow cytometry; type: cell-based; conditions: TFPI2 recombinant protein 20 ng/ml; AS1517499 25 nM
Procedure: Primary mouse CD8^+ T cells were isolated from the spleens of C57BL/6 mice using a CD8^+ T cell isolation kit (Miltenyi Biotec, #130-104-075) according to manufacturer's instructions. Isolated CD8^+ T cells were cultured in RPMI 1640 media (Gibco, #22400-089) containing 10% FBS, 50 μM 2-Mercaptoethanol (Sigma, #M7522), and 1:100 antibiotic-antimycotic. Then, primary mouse CD8^+ T cells were expanded by 30 U/ml mouse IL-2 (Miltenyi Biotec, #130-120-662) and activated by Dynabeads® mouse T-activator CD3/CD28 (Gibco, #11456D) at bead-to-cell ratio of 1:1 before analysis and co-culture studies. For membrane protein staining, the single-cell suspensions were washed with PBS and then incubated with fixable viability dye (Invitrogen, #5211229035) on ice for 10 min. Following washing with PBS, cells were incubated with the anti-CD16/CD32 cocktail (BioLegend, #103132) in 2% BSA PBS to block Fc receptors for 30 min on ice. […] Samples were read in BD FACSymphony flow cytometer and analyzed in FlowJo v10.8.1. […] Then cell suspensions were rewashed in permeabilization buffer and read in BD FACSymphony flow cytometer.

[2] = tested on: GSC262, GSC23 and GSC20 cells; test: Immunoblot for CD133 and SOX2 in GSCs; type: cell-based, human; conditions: TFPI2 recombinant protein at indicated concentrations for 24 hrs
Procedure: The protein expression in cells was determined by western blotting analysis (Ref. 61; incorporated by reference in its entirety). Cells were homogenized in RIPA lysis buffer containing phosphatase/protease cocktail inhibitors (Cell Signaling Technology, #5870). The protein concentration was determined by BCA Protein Assay Kit (Thermo Fisher Scientific, #P123225). Protein solution was mixed with the Leammli sample buffer and heated at 95° C. before loading to SurePAGE gels (GenScript, #M00653). The gels were run at a constant voltage of 80 V and then transferred to 0.2 μm nitrocellulose membrane (Bio-Rad, #1620112) using the Trans-Blot Turbo system (Bio-Rad) with a preprogrammed standard protocol for 30 min. Nitrocellulose membrane was incubated with 5% dry milk to block any unspecific staining. […]

HMC3 microglia = test: Human phospho-kinase antibody array; type: cell-based; conditions: 20 ng/ml TFPI2 recombinant protein
Procedure: After starvation for 24 hrs followed by TFPI2 recombinant protein treatment for 1 hr, HMC3 cell lysate was prepared using a lysis buffer with […]. Phosphorylation profiles of kinases were determined using Proteome Profiler Human Phospho-Kinase Array Kit (Bio-Techne, #ARY003C) as the instruction manual. Signal was detected under ChemiDoc Touch Imaging System (Bio-Rad).

Molecule	decrease of CD8+ T cell viability by TFPI2-polarized microglia [1]	reduction of the percentage of CD8+CD69+ and CD8+IFNγ+ T cells by TFPI2-treated microglia [1]	expression of stemness-associated factors CD133 and SOX2 [2]	kinases STAT6 and AKT in phospho-kinase array (HMC3 microglia)
NC(=O)c1cnc(NCCc2ccc(O)c(Cl)c2)nc1NCc1ccccc1 [AS1517499]	negated	prevented		
B1			increased	activated

Source: patent US20250188457A1, “COMPOSITIONS AND METHODS FOR THE TREATMENT OF GLIOBLASTOMA BY INHIBITION OF THE TFPI2-CD51-STAT6 SIGNALING AXIS” (Northwestern University, priority 2023, published 2025)
